Experimental data from PubChem BioAssay AID328 (DTP/NCI, 2004).
“And” between values parts separate entries of the source, which are not always exact repeats. Equal entries are not always repeated. Toxic doses and inconclusive results are not listed.

Test system: BDF1 mice, P388 leukemia ip, median survival T/C
Test: NCI In Vivo Anticancer Drug Screen. Data for tumor model P388 Leukemia (intraperitoneal) in B6D2F1 (BDF1) mice
Settings: endpoint: median survival time, higher = longer survival
Method in brief: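 Read-out is survival of treated animals expressed relative to the vehicle group, as a T/C ratio.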

[1] = dose: 2.5 mg/kg/injection, schedule: Q01DX009 (ip), vehicle: Klucel (hydroxypropylcellulose) (HPC)
[2] = dose: 50.0 mg/kg/injection, schedule: Q01DX009 (ip), vehicle: saline with Tween-80
[3] = dose: 100.0 mg/kg/injection, schedule: Q01DX009 (ip), vehicle: saline with Tween-80
[4] = dose: 200.0 mg/kg/injection, schedule: Q01DX009 (ip), vehicle: saline with Tween-80
[5] = dose: 100.0 mg/kg/injection, schedule: Q04DX002 (ip), vehicle: saline with Tween-80
[6] = dose: 100.0 mg/kg/injection, schedule: Q04DX003 (ip), vehicle: saline with Tween-80
[7] = dose: 200.0 mg/kg/injection, schedule: Q04DX003 (ip), vehicle: saline with Tween-80
[8] = dose: 6.25 mg/kg/injection, schedule: Q01DX009 (ip), vehicle: saline
[9] = dose: 50.0 mg/kg/injection, schedule: Q04DX003 (ip), vehicle: saline
[10] = dose: 100.0 mg/kg/injection, schedule: Q04DX003 (ip), vehicle: saline
[11] = dose: 200.0 mg/kg/injection, schedule: Q04DX003 (ip), vehicle: saline

CC12OC1C(=O)c1ccccc1C2=O (stereo unspecified)
T/C (dose: 0.75 mg/kg/injection, schedule: Q01DX009 (ip), vehicle: Klucel (hydroxypropylcellulose) (HPC)): 87 % of control
T/C (dose: 1.5 mg/kg/injection, schedule: Q01DX009 (ip), vehicle: Klucel (hydroxypropylcellulose) (HPC)): 100 % of control
T/C [1]: 89 % of control
T/C (dose: 3.0 mg/kg/injection, schedule: Q01DX009 (ip), vehicle: Klucel (hydroxypropylcellulose) (HPC)): 95 % of control
T/C (dose: 5.0 mg/kg/injection, schedule: Q04DX003 (ip), vehicle: Klucel (hydroxypropylcellulose) (HPC)): 92 % of control
T/C (dose: 10.0 mg/kg/injection, schedule: Q04DX003 (ip), vehicle: Klucel (hydroxypropylcellulose) (HPC)): 92 % of control

N/N=C(/c1ccccc1)c1nc(-c2ccccc2)n[nH]c1=O
T/C [2]: 111 % of control
T/C [3]: 106 % of control
T/C [4]: 112 % of control

CC(=O)Nc1ccccc1C1SCCCS1
T/C (dose: 50.0 mg/kg/injection, schedule: Q04DX002 (ip), vehicle: saline with Tween-80): 102 % of control
T/C [5]: 98 % of control
T/C (dose: 200.0 mg/kg/injection, schedule: Q04DX002 (ip), vehicle: saline with Tween-80): 106 % of control

O=C1NC(O)c2cc(CO)ccc2O1 (stereo unspecified)
T/C (dose: 50.0 mg/kg/injection, schedule: Q01DX005 (ip), vehicle: saline with Tween-80): 100 % of control
T/C (dose: 100.0 mg/kg/injection, schedule: Q01DX005 (ip), vehicle: saline with Tween-80): 104 % of control
T/C (dose: 200.0 mg/kg/injection, schedule: Q01DX005 (ip), vehicle: saline with Tween-80): 109 % of control

Cc1cc(C(=O)c2ccccn2)c2cccc(C(F)(F)F)c2n1
T/C (dose: 12.5 mg/kg/injection, schedule: Q01DX009 (ip), vehicle: saline with Tween-80): 95 % of control
T/C [6]: 95 % of control
T/C [4]: 86 % of control
T/C [7]: 90 % of control
T/C (dose: 400.0 mg/kg/injection, schedule: Q04DX003 (ip), vehicle: saline with Tween-80): 90 % of control

CCN(CC)CCOc1cccc(C)c1C
T/C (dose: 25.0 mg/kg/injection, schedule: Q04DX003 (ip), vehicle: saline with Tween-80): 96 % of control
T/C (dose: 50.0 mg/kg/injection, schedule: Q04DX003 (ip), vehicle: saline with Tween-80): 100 % of control
T/C [6]: 116 % of control

CC(=O)Nc1ccc2c(c1)OCO2
T/C [2]: 104 % of control
T/C [3]: 104 % of control
T/C [6]: 95 % of control
T/C [4]: 90 % of control
T/C [7]: 113 % of control

CCCCOC(=O)c1[nH]cnc1/N=N\N(C)C
T/C (dose: 12.5 mg/kg/injection, schedule: Q01DX009 (ip), vehicle: Klucel (hydroxypropylcellulose) (HPC)): 104 % of control
T/C (dose: 25.0 mg/kg/injection, schedule: Q01DX009 (ip), vehicle: Klucel (hydroxypropylcellulose) (HPC)): 109 % of control
T/C (dose: 50.0 mg/kg/injection, schedule: Q01DX009 (ip), vehicle: Klucel (hydroxypropylcellulose) (HPC)): 104 % of control
T/C (dose: 100.0 mg/kg/injection, schedule: Q01DX009 (ip), vehicle: Klucel (hydroxypropylcellulose) (HPC)): 100 % of control
T/C (dose: 132.0 mg/kg/injection, schedule: Q04DX003 (ip), vehicle: Klucel (hydroxypropylcellulose) (HPC)): 100 % of control and 113 % of control
T/C (dose: 200.0 mg/kg/injection, schedule: Q04DX003 (ip), vehicle: Klucel (hydroxypropylcellulose) (HPC)): 95 % of control and 113 % of control
T/C (dose: 300.0 mg/kg/injection, schedule: Q04DX003 (ip), vehicle: Klucel (hydroxypropylcellulose) (HPC)): 109 % of control and 118 % of control

CO[C@@H](C=O)O[C@@H](C=O)CO
T/C [8]: 120 % of control
T/C (dose: 25.0 mg/kg/injection, schedule: Q01DX009 (ip), vehicle: saline): 150 % of control
T/C [9]: 150 % of control
T/C (dose: 89.0 mg/kg/injection, schedule: Q04DX003 (ip), vehicle: saline): 170 % of control
T/C [10]: 160 % of control
T/C (dose: 133.0 mg/kg/injection, schedule: Q04DX003 (ip), vehicle: saline): 160 % of control
T/C [11]: 175 % of control and 180 % of control

Nc1cc2nnc(-c3ccccc3)c(-c3ccccc3)n2n1
T/C [5]: 89 % of control
T/C (dose: 400.0 mg/kg/injection, schedule: Q04DX002 (ip), vehicle: saline with Tween-80): 86 % of control

O=NN(CCCl)C(=O)Nc1ccc(CCO)cc1
T/C (dose: 0.12 mg/kg/injection, schedule: Q04DX003 (ip), vehicle: saline): 100 % of control
T/C (dose: 0.13 mg/kg/injection, schedule: Q01DX009 (ip), vehicle: Klucel (hydroxypropylcellulose) (HPC)): 112 % of control
T/C (dose: 0.2 mg/kg/injection, schedule: Q01DX009 (ip), vehicle: Klucel (hydroxypropylcellulose) (HPC)): 91 % of control
T/C (dose: 0.2 mg/kg/injection, schedule: Q01DX009 (ip), vehicle: alcohol): 100 % of control
T/C (dose: 0.25 mg/kg/injection, schedule: Q04DX003 (ip), vehicle: saline): 104 % of control
T/C (dose: 0.3 mg/kg/injection, schedule: Q01DX009 (ip), vehicle: alcohol): 108 % of control
T/C (dose: 0.5 mg/kg/injection, schedule: Q01DX009 (ip), vehicle: alcohol): 150 % of control
T/C (dose: 0.5 mg/kg/injection, schedule: Q01DX009 (ip), vehicle: other): 181 % of control
T/C (dose: 0.5 mg/kg/injection, schedule: Q04DX003 (ip), vehicle: saline + alcohol): 155 % of control
T/C (dose: 0.5 mg/kg/injection, schedule: Q04DX003 (ip), vehicle: saline): 117 % of control
T/C (dose: 1.0 mg/kg/injection, schedule: Q01DX009 (ip), vehicle: Klucel (hydroxypropylcellulose) (HPC)): 150 % of control
T/C (dose: 1.0 mg/kg/injection, schedule: Q01DX009 (ip), vehicle: alcohol): 183 % of control
T/C (dose: 1.0 mg/kg/injection, schedule: Q01DX009 (ip), vehicle: other): 181 % of control
T/C (dose: 1.0 mg/kg/injection, schedule: Q04DX003 (ip), vehicle: saline + alcohol): 188 % of control
T/C (dose: 1.65 mg/kg/injection, schedule: Q01DX009 (ip), vehicle: Klucel (hydroxypropylcellulose) (HPC)): 200 % of control
T/C (dose: 1.65 mg/kg/injection, schedule: Q01DX009 (ip), vehicle: saline): 266 % of control
T/C (dose: 2.0 mg/kg/injection, schedule: Q01DX009 (ip), vehicle: alcohol): 237 % of control
T/C (dose: 2.0 mg/kg/injection, schedule: Q01DX009 (ip), vehicle: other): 254 % of control
T/C (dose: 2.0 mg/kg/injection, schedule: Q04DX003 (ip), vehicle: saline + alcohol): 255 % of control
T/C [1]: 257 % of control
T/C (dose: 2.5 mg/kg/injection, schedule: Q01DX009 (ip), vehicle: saline with Tween-80): 240 % of control
T/C (dose: 2.5 mg/kg/injection, schedule: Q01DX009 (ip), vehicle: saline): 333 % of control
T/C (dose: 3.75 mg/kg/injection, schedule: Q01DX009 (ip), vehicle: Klucel (hydroxypropylcellulose) (HPC)): 289 % of control
T/C (dose: 3.75 mg/kg/injection, schedule: Q01DX009 (ip), vehicle: saline): 333 % of control
T/C (dose: 4.0 mg/kg/injection, schedule: Q01DX009 (ip), vehicle: alcohol): 250 % of control
T/C (dose: 4.0 mg/kg/injection, schedule: Q01DX009 (ip), vehicle: other): 272 % of control
T/C (dose: 4.0 mg/kg/injection, schedule: Q04DX003 (ip), vehicle: saline + alcohol): 322 % of control
T/C (dose: 5.0 mg/kg/injection, schedule: Q01DX009 (ip), vehicle: saline with Tween-80): 270 % of control
T/C [8]: 180 % of control
T/C (dose: 6.25 mg/kg/injection, schedule: Q04DX003 (ip), vehicle: saline + alcohol): 272 % of control
T/C (dose: 10.0 mg/kg/injection, schedule: Q01DX009 (ip), vehicle: saline with Tween-80): 110 % of control
T/C (dose: 12.5 mg/kg/injection, schedule: Q01DX009 (ip), vehicle: saline): 100 % of control
T/C (dose: 12.5 mg/kg/injection, schedule: Q04DX003 (ip), vehicle: saline + alcohol): 272 % of control
T/C (dose: 25.0 mg/kg/injection, schedule: Q04DX003 (ip), vehicle: saline sonified): 90 % of control

CC/C(=C(\CC)c1ccc(OCCN(CC)CC)cc1)c1ccc(OCCN(CC)CC)cc1
T/C (dose: 12.5 mg/kg/injection, schedule: Q01DX010 (ip), vehicle: carboxymethylcellulose (CMC)): 100 % of control
T/C (dose: 25.0 mg/kg/injection, schedule: Q01DX010 (ip), vehicle: carboxymethylcellulose (CMC)): 105 % of control

Cc1ccc(C(=O)CC(O)(C(F)(F)F)C(F)(F)F)cc1
T/C (dose: 100.0 mg/kg/injection, schedule: Q01DX009 (ip), vehicle: other): 100 % of control
T/C (dose: 200.0 mg/kg/injection, schedule: Q01DX009 (ip), vehicle: other): 95 % of control
T/C (dose: 400.0 mg/kg/injection, schedule: Q01DX009 (ip), vehicle: other): 121 % of control

O=COCC(O)COC=O
T/C [9]: 103 % of control
T/C [10]: 112 % of control
T/C [11]: 112 % of control
